These results are taken from US11298333B1, “Methods of reducing the risk of cardiovascular events in a subject” (Amarin Pharmaceuticals Ireland Limited, priority 2018, dated 2022).

The assay relates to statin-treated patients with a history of atherosclerosis or diabetes. Kind of assay: REDUCE-IT Example 2: recurrent and total ischemic events (Andersen-Gill, Wei-Lin-Weissfeld). It is filed as in vivo, human. The text has this: The following study was a multi-center, placebo-controlled clinical trial the details of which are described above in Example 1, the REDUCE-IT design. […] Randomization was stratified by cardiovascular risk cohort (i.e., secondary or primary prevention), use of ezetimibe, and by geographic region.
The primary outcome for the study was total recurrent events consisting of the composite of cardiovascular death, nonfatal myocardial infarction, nonfatal stroke, coronary revascularization, or hospitalization for unstable angina. Recurrent event analyses were also performed for the key secondary endpoint, a composite of cardiovascular death, non-fatal myocardial infarction, or non-fatal stroke. For each of these composite endpoints, the effects of icosapent ethyl in the secondary and primary prevention strata were examined separately.
Demographic and baseline disease characteristics are presented using frequencies and percentages for categorical variables and medians with interquartile ranges for continuous variables. Between treatment group comparisons were derived using the chi-square test for categorical variables and Wilcoxon rank test for continuous variables. All clinical endpoint events used in the efficacy analyses were adjudicated by an independent Clinical Endpoint Committee (CEC) who were blinded to the treatment assignment. Since the primary efficacy endpoint was the time from randomization to the first occurrence of any component of the composite endpoint, and recurrence of such events within each patient is possible, a pre-specified analysis using a Cox proportional-hazard with the counting-process formulation of Andersen and Gill was performed to model the first and all recurrent cardiovascular events. Hazard ratios (HR) and corresponding 95% confidence intervals (CI) are reported from this model. In addition, as a marginal model and an extension of survival models based on the Cox proportional hazard model, the modified Wei-Lin-Weissfeld (WLW) method for analysis of recurrent events in the presence of deaths was carried out as a supportive analysis. In addition, as pre-specified, a recurrent event analysis using the Andersen-Gill and Wei-Lin-Weissfeld methods were carried out for the individual primary event components other than CV death. Though not pre-specified, additional recurrent event analyses were performed for the key secondary endpoint, which is a composite of CV death, non-fatal MI, or non-fatal stroke, and for the primary endpoint and the key secondary endpoint in the primary and secondary prevention strata to explore further the consistency of clinical benefit of icosapent ethyl. In subgroup analyses of the two cardiovascular risk strata (i.e., primary and secondary prevention), site-level discrepancies in cardiovascular risk group assignment occurring at entry and detected during the study (1.8%) were adjusted to conform with documented medical history data prior to randomization. All efficacy analyses were performed according to the intention-to-treat principle. All tests were based on a 2-sided nominal significance level of 5% with no adjustments for multiple comparisons.

[1] abbreviates: without adjusting for stratification differences.
Where [2] appears, read: without adjustment for stratification differences.

Turning to `CC/C=C\C/C=C\C/C=C\C/C=C\C/C=C\CCCC(=O)OCC` [Icosapent Ethyl, eicosapentaenoic acid ethyl ester], where the note is “Wei-Lin-Weissfeld model”, the “First occurrence of primary composite endpoint: HR vs placebo” value is on record as 0.75 and the “Second occurrence of primary composite endpoint: HR vs placebo” value came out at 0.72. For the setting “adjusted stratification”, the “Total key secondary endpoints: HR, primary prevention stratum” value was 0.71; the “Total key secondary endpoints: HR, secondary prevention stratum” value was determined as 0.70; the “Total primary endpoint events: HR, primary prevention stratum” value was found to be 0.79; the “Total primary endpoint events: HR, secondary prevention stratum” value worked out at 0.66. Besides, for the setting “in vivo”, the “Cardiovascular deaths prevented per 100 patients treated for five years” value came out at 1, the “Coronary revascularizations prevented per 100 patients treated for five years” value was found to be 8, the “Episodes of unstable angina prevented per 100 patients treated for five years” value came to 2 and the “Myocardial infarctions prevented per 100 patients treated for five years” value stood at 4. For the same molecule, for the setting “in vivo”, the “Relative risk reduction in total events for the primary composite efficacy outcome” value is reported as 32% and the “Strokes prevented per 100 patients treated for five years” value was 1. Also, the “Total key secondary endpoints: HR vs placebo” value (overall) amounted to 0.71. Also, under setting [1], the “Total primary endpoint events: HR, primary prevention stratum” value worked out at 0.86 and the “Total primary endpoint events: HR, secondary prevention stratum” value is reported as 0.65. Under setting [2], the “Total key secondary endpoint events: HR, primary prevention” value is listed as 0.78 and the “Total key secondary endpoint events: HR, secondary prevention stratum” value stood at 0.69.
